# Where two headings read alike, the source gives them in different places.
# Assays:
# [1] = biological target: T1, gerbil NK1r (Meriones unguiculatus, UniProt Q5DUB1); assay: Gerbil foot tap (GFT, NK1r-specific test model); assay type: in vivo, Mongolian gerbil; set-up: tissue Charles River, Germany (animals); host or cells: living Mongolian gerbil, central nervous system (in vivo); conditions: from brain homogenate concentration of antagonist at 50% inhibition, used in the Cheng-Prusoff equation
# Excerpt: Male Mongolian gerbils (60-80 g) were purchased from Charles River, Germany. On arrival, they were housed in groups of ten, with food and water ad libitum in temperature- and humidity-controlled holding rooms. The animals were allowed at least 7 days to acclimatize to the housing conditions before experiments. Each animal was used only once and killed immediately after the experiment by heart punctuation or a lethal overdose of pentobarbital sodium.
# Gerbils were anaesthetized with isoflurane. Potential CNS-permeable NK1 receptor antagonists were administered intraperitoneally, intravenously or subcutaneously.
# The gerbils were lightly anaesthetized using isoflurane and a small incision was made in the skin over bregma. 10 pmol of ASMSP, a selective NK1receptor agonist, was administered icv in a volume of 5 μl using a Hamilton syringe with a needle 4 mm long. The wound was clamped shut and the animal was placed in a small plastic cage and allowed to wake up. The cage was placed on a piece of plastic tubing filled with water and connected to a computer via a pressure transducer. The number of hind feet taps was recorded.
# [2] = biological target: T1, gerbil NK1r; assay: Inhibition of NK1 receptor activation, intracellular Ca2+ mobilization (FLIPR) in CHO cells; assay type: cell-based; set-up: Full-length PCR was performed using primers #NK1-16 and #NK1-17; expressed in transfected cells; conditions: pKB ± SD, submaximal (60%) concentration of Substance P
# Procedure: (§1) The activity of a compound to inhibit NK1r activation measured as NK1r-mediated increase in intracellular Ca^2+ was assessed by the following procedure:
# (§2) Before the FLIPR assay the cells of each 96-well plate were loaded with the Ca^2+-sensitive dye Fluo-3 (TEFLABS 0116) at 4 μM in a loading media consisting of Nut Mix F12 (HAM) with Glutamax I, 22 mM HEPES, 2.5 mM Probenicid (Sigma P-8761) and 0.04% Pluronic F-127 (Sigma P-2443) and kept in the dark for 1 hour in a 37° C. CO2-incubator. The cells were then washed three times in assay buffer (Hanks balanced salt solution (HBSS) containing 20 mM HEPES, 2.5 mM Probenicid and 0.1% BSA) using a multi-channel pipette leaving them in 150 μl at the end of the last wash. Serial dilutions of a test compound in assay buffer (final DMSO concentration kept below 1%) were automatically pipetted by FLIPR (Fluorometric Imaging Plate Reader) into each test well and the fluorescence intensity was recorded (excitation 488 nm and emission 530 nm) by the FLIPR CCD camera for a 2-min pre-incubation period. 50 μl of the Substance P (NK1 specific), NKA (NK2 specific), or Pro-7-NKB (NK3 specific) agonist solution (final concentration equivalent to an approximate EC60 concentration) was then added by FLIPR into each well already containing 200 μl assay buffer (containing the test compound or vehicle) and the fluorescence was continuously monitored for another 2 min. The response was measured as the peak relative fluorescence after agonist addition and IC50s were calculated from ten-point concentration-response curves for each compound. The IC50s were then converted to pKB values with the following formula: KB=IC50/1+(EC60 conc. of agonist used in assay/EC50 agonist) pKB=−log KB Binding Assay for NK1 Receptors
# [3] = biological target: T2, rat NK1r (Rattus norvegicus, UniProt P14600); assay: as above; assay type: cell-based; conditions: pKB ± SD, submaximal (60%) concentration of Substance P
# T2 construct: expressed in transfected cells
# Procedure: as §1, §2
# [4] = biological target: T1, gerbil NK1r
# Procedure: Cells were detached with Accutase® solution, harvested in PBS containing 5% FBS by centrifugation, washed twice in PBS and resuspended to a concentration of 1×10^8 cells/ml in Tris-HCl 50 mM, KCl 300 mM, EDTA-N2 10 mM pH 7.4 (4° C.). Cell suspensions were homogenized with a UltraTurrax 30 s 12.000 rpm. The homogenates were centrifuged at 38,000×g (4° C.) and the pellet resuspended in Tris-HCl 50 mM pH 7.4. The homogenization was repeated once and the homogenates were incubated on ice for 45 min. The homogenates were again centrifuged as described above and resuspended in Tris-HCl 50 mM pH 7.4. This centrifugation step was repeated 3 times in total. After the last centrifugation step the pellet was resuspended in Tris-HCl 50 mM and homogenized with Dual Potter, 10 strokes to a homogenous solution, and aliquots were removed for protein determination. Membranes were aliquoted and frozen at −80° C. until use.
# The radioligand binding assay was performed at room temperature in 96-well microtiter plates (No-binding Surface Plates, Corning 3600) with a final assay volume of 200 μl/well in incubation buffer (50 mM Tris buffer (pH 7.4 RT) containing 0.1% BSA, 40 mg/L Bacitracin, complete EDTA-free protease inhibitor cocktail tablets 20 pills/L (Roche) and 3 mM MnCl2).
# Competition binding curves were done by adding increasing amounts of the test compound. […]
# (§3) The membranes were then collected by rapid filtration on Filtermat B(Wallac), presoaked in 0.1% BSA and 0.3% Polyethyleneimine (Sigma P-3143), using a Micro 96 Harvester (Skatron Instruments, Norway). […] Meltilex scintillator sheets were melted on to filters using a Microsealer (Wallac, Finland) and the filters were counted in a β-Liquid Scintillation Counter (1450 Microbeta, Wallac, Finland).
# (§4) The Ki value for the unlabeled ligand was calculated using the Cheng-Prusoff equation (Biochem. Pharmacol. 22:3099-3108, 1973), where L is the concentration of the radioactive ligand used and Kd is the affinity of the radioactive ligand for the receptor, determined by saturation binding. […]
# [5] = biological target: T3, human NK1r (Homo sapiens, UniProt P25103)
# Procedure: Cells were detached with Accutase® solution, harvested in PBS containing 5% FBS by centrifugation, washed twice in PBS and resuspended to a concentration of 1×10^8 cells/ml in Tris-HCl 50 mM, KCl 300 mM, EDTA-N2 10 mM pH 7.4 (4° C.). Cell suspensions were homogenized with a UltraTurrax 30 s 12.000 rpm. The homogenates were centrifuged at 38,000×g (4° C.) and the pellet resuspended in Tris-HCl 50 mM pH 7.4. The homogenization was repeated once and the homogenates were incubated on ice for 45 min. The homogenates were again centrifuged as described above and resuspended in Tris-HCl 50 mM pH 7.4. This centrifugation step was repeated 3 times in total. […]
# as §3, §4
# [6] = biological target: T3, human NK1r; assay: Inhibition of NK1 receptor activation, intracellular Ca2+ mobilization (FLIPR) in CHO cells; assay type: cell-based; set-up: expressed in transfected cells; conditions: pKB ± SD, submaximal (60%) concentration of Substance P
# Procedure: as §1
# CO2-incubator. The cells were then washed three times in assay buffer (Hanks balanced salt solution (HBSS) containing 20 mM HEPES, 2.5 mM Probenicid and 0.1% BSA) using a multi-channel pipette leaving them in 150 μl at the end of the last wash. […] 50 μl of the Substance P (NK1 specific), NKA (NK2 specific), or Pro-7-NKB (NK3 specific) agonist solution (final concentration equivalent to an approximate EC60 concentration) was then added by FLIPR into each well already containing 200 μl assay buffer (containing the test compound or vehicle) and the fluorescence was continuously monitored for another 2 min. The response was measured as the peak relative fluorescence after agonist addition and IC50s were calculated from ten-point concentration-response curves for each compound. The IC50s were then converted to pKB values with the following formula: KB=IC50/1+(EC60 conc. of agonist used in assay/EC50 agonist) pKB=−log KB Binding Assay for NK1 Receptors
# T2 sequence (P14600 whole entry): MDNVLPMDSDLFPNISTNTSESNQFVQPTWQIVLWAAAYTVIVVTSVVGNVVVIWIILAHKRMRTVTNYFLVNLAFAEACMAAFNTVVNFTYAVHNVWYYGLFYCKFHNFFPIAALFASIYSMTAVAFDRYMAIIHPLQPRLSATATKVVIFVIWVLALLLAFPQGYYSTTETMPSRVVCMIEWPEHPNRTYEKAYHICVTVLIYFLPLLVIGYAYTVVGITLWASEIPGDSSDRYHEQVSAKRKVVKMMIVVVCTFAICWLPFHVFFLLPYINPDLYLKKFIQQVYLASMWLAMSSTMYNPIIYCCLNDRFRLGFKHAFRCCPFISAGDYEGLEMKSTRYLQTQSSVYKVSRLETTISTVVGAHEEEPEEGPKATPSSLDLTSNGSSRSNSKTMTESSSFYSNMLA
# T1 sequence (Q5DUB1 whole entry): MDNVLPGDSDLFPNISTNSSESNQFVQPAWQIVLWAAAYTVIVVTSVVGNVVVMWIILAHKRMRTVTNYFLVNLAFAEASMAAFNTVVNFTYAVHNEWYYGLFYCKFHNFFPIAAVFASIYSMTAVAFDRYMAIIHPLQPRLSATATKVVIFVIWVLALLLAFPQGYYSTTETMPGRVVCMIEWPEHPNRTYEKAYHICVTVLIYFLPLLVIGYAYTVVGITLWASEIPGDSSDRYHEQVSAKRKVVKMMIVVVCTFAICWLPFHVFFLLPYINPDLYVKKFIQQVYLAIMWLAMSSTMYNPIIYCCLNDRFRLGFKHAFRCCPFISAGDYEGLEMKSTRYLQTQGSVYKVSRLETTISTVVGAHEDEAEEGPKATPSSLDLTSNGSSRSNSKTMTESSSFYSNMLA
# T3 sequence (P25103 whole entry): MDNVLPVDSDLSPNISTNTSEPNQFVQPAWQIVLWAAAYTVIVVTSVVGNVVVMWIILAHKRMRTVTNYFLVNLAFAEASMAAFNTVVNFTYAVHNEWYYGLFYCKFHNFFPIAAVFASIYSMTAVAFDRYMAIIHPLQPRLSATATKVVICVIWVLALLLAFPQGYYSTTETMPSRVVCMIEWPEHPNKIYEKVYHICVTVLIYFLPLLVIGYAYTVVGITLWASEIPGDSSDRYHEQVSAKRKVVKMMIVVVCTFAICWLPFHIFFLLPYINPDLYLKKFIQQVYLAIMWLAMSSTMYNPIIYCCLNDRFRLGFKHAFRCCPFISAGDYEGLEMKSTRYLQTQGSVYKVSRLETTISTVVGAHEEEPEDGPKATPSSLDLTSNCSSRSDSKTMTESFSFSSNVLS
smiles,measurement,setting,value
COc1ccccc1CN[C@H]1CCCN[C@H]1c1ccccc1 [CP 99994],gerbil NK1r pKBapp. (in vivo GFT apparent pKB),[1],8.1
same,Kb,[2],1.15 nM
same,Kb,[3],1230 nM
same,Ki,[4],0.81 nM
CN(C[C@@H](CCN1CCC(c2ccccc2[S@+](C)[O-])CC1)c1ccc(Cl)c(Cl)c1)C(=O)c1cc(C#N)cc2ccccc12 [ZD 6021],gerbil NK1r pKBapp. (in vivo GFT apparent pKB),[1],8.5
same,gerbil NK1r pKB,[2],9.00 ± 0.25
same,rat NK1r pKB,[3],<6
same,Ki,[5],0.31 nM
same,human NK1r pKB,[6],8.53 ± 0.41
same,Ki,"[4]; read-out: Gerbil NK1 Ki, competition binding, CHO cell membranes",0.38 nM
"C[C@@H](O[C@H]1OCCN(Cc2n[nH]c(=O)[nH]2)[C@H]1c1ccc(F)cc1)c1cc(C(F)(F)F)cc(C(F)(F)F)c1 [MK 869, aprepitant]",gerbil NK1r pKBapp. (in vivo GFT apparent pKB),[1],8.9
same,Kb,[2],1.55 nM
same,Kb,[3],55 nM
same,Ki,[4],0.16 nM

# From patent US20070248995A1, “Molecules” (priority 2004, published 2007)
